Key:
Assay in all cases: relative viability (nuclei count vs DMSO), 5 days (fraction); higher = more cells survive
[1] = compound: Cn1cc(-c2cnc3ccc4ccc(CS(=O)(=O)NCc5ccccn5)cc4c(=O)c3c2)cn1 [MK-8033] + O=C(c1cc(Cc2n[nH]c(=O)c3ccccc23)ccc1F)N1CCN(C(=O)C2CC2)CC1 [Olaparib] (partner 8 µM)
Procedure, shortened: (§1)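 Nuclei were stained with Hoechst during a one-step fixation (final 0.05% Triton X-100, 1% formaldehyde, 1 ug/ml Hoechst) carried out 5 days after dosing, then counted on 4× images. The cells, lung cancer lines in 1536-well plates, had been dosed by pin tool the day after seeding with one drug alone or a fixed anchor-drug dose plus five library-drug doses (not always all listed) in √10 steps. Relative viability is the nuclei count in treated wells divided by that in vehicle wells, and each value is the median of duplicate plates.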

[2] = compound: Cn1cc(-c2cnc3ccc4ccc(CS(=O)(=O)NCc5ccccn5)cc4c(=O)c3c2)cn1 [MK-8033] + N=C(N)NC(=N)NCCc1ccccc1 [Phenformin] (partner 250 µM)
Procedure, shortened: as §1

[3] = compound: CCc1c2c(nc3ccc(OC(=O)N4CCC(N5CCCCC5)CC4)cc13)-c1cc3c(c(=O)n1C2)COC(=O)[C@]3(O)CC [Irinotecan] + CS(=O)(=O)CCNCc1ccc(-c2ccc3ncnc(Nc4ccc(OCc5cccc(F)c5)c(Cl)c4)c3c2)o1 [Lapatinib] (partner 2 µM)
Procedure, shortened: as §1

[4] = compound: CC[C@@H](C)CNCC(=O)N1CCC2=C([C@@H]1COC3=CC=CC(=C3)C)C=CS2 [RU-SKI 43] + N=C(N)NC(=N)NCCc1ccccc1 [Phenformin] (partner 250 µM)
Procedure, shortened: as §1

Row | Cell Line | relative viability ([1]; first compound 0.02 µM) | relative viability ([1]; first compound 0.06325 µM) | relative viability ([1]; first compound 0.2 µM) | relative viability ([1]; first compound 0.6325 µM) | relative viability ([1]; first compound 2 µM) | relative viability ([2]; first compound 0.02 µM) | relative viability ([2]; first compound 0.06325 µM) | relative viability ([2]; first compound 0.2 µM) | relative viability ([2]; first compound 0.6325 µM) | relative viability ([2]; first compound 2 µM) | relative viability ([3]; first compound 0.6325 µM) | relative viability ([3]; first compound 2 µM) | relative viability ([3]; first compound 6.325 µM) | relative viability ([3]; first compound 20 µM) | relative viability ([4]; first compound 0.1 µM) | relative viability ([4]; first compound 0.3162 µM) | relative viability ([4]; first compound 1 µM) | relative viability ([4]; first compound 3.162 µM) | relative viability ([4]; first compound 10 µM)
1 | COR-L 105 | 0.846 | 0.673 | 0.7 | 0.637 | 0.701 | 0.523 | 0.395 | 0.463 | 0.499 | 0.476 | 0.358 | 0.431 | 0.452 | 0.272 | 0.486 | 0.519 | 0.555 | 0.439 | 0.515
2 | EKVX | 0.85 | 0.842 | 0.825 | 0.763 | 0.859 | 0.222 | 0.211 | 0.238 | 0.22 | 0.254 | 0.222 | 0.256 | 0.16 | 0.17 | 0.221 | 0.197 | 0.261 | 0.235 | 0.193
3 | EMC-BAC-2 | 0.501 | 0.477 | 0.473 | 0.49 | 0.479 | 0.554 | 0.509 | 0.531 | 0.556 | 0.494 | 0.774 | 0.578 | 0.27 | 0.246 | 0.535 | 0.429 | 0.551 | 0.482 | 0.507
4 | EPLC-272H | 0.817 | 0.716 | 0.792 | 0.614 | 0.689 | 0.347 | 0.228 | 0.359 | 0.325 | 0.331 | 0.509 | 0.758 | 0.211 | 0.267 | 0.294 | 0.242 | 0.323 | 0.213 | 0.266
5 | H3255 | 0.567 | 0.504 | 0.561 | 0.57 | 0.537 | 0.341 | 0.364 | 0.335 | 0.326 | 0.37 | 0.206 | 0.214 | 0.224 | 0.23 | 0.395 | 0.348 | 0.26 | 0.316 | 0.322
6 | HARA | 0.558 | 0.542 | 0.761 | 0.732 | 0.639 | 0.477 | 0.406 | 0.396 | 0.374 | 0.422 | 0.749 | 0.339 | 0.17 | 0.118 | 0.531 | 0.471 | 0.491 | 0.457 | 0.408
7 | HCC-15 | 0.807 | 0.611 | 0.737 | 0.67 | 0.529 | 0.511 | 0.467 | 0.421 | 0.45 | 0.482 | 0.463 | 0.336 | 0.17 | 0.155 | 0.49 | 0.53 | 0.55 | 0.511 | 0.521
8 | HCC-44 | 1 | 1.06 | 0.931 | 1.01 | 0.975 | 0.209 | 0.181 | 0.22 | 0.252 | 0.208 | 0.96 | 0.73 | 0.273 | 0.382 | 0.247 | 0.261 | 0.409 | 0.18 | 0.277
9 | HCC-78 | 0.717 | 0.82 | 0.739 | 0.505 | 0.775 | 0.806 | – | 0.668 | 0.728 | 0.799 | 0.551 | 0.543 | 0.206 | 0.218 | 0.735 | 0.735 | 0.933 | 0.739 | 0.692
10 | HCC-366 | 0.361 | 0.344 | 0.328 | 0.34 | 0.323 | 0.725 | 0.644 | 0.601 | 0.618 | 0.607 | 0.418 | 0.126 | 0.0457 | 0.0686 | 0.616 | 0.676 | 0.652 | 0.582 | 0.453
11 | HCC-827 | 0.653 | – | 0.644 | 0.561 | 0.488 | 0.407 | – | 0.397 | 0.424 | 0.393 | 0.178 | 0.222 | 0.133 | 0.16 | 0.421 | 0.422 | 0.372 | 0.46 | 0.359
12 | HOP-62 | 0.407 | 0.51 | 0.417 | 0.399 | 0.471 | 0.674 | 0.646 | 0.631 | 0.703 | 0.639 | 0.471 | 0.258 | 0.143 | 0.217 | 0.688 | 0.547 | 0.779 | 0.789 | 0.714
13 | LC-2-ad | 0.701 | 0.678 | 0.673 | 0.702 | 0.727 | 0.605 | 0.515 | – | 0.592 | 0.589 | 0.416 | 0.291 | 0.172 | 0.132 | 0.578 | 0.628 | 0.637 | 0.527 | 0.558
14 | LCLC-97TM1 | 0.346 | 0.387 | – | 0.406 | 0.256 | 0.393 | 0.433 | 0.456 | 0.454 | 0.439 | 0.317 | 0.263 | 0.156 | 0.173 | 0.463 | 0.471 | 0.422 | 0.43 | 0.384
15 | LK-2 | 0.974 | 0.694 | 0.765 | 0.678 | 0.81 | 0.708 | – | 0.326 | 0.437 | 0.305 | 0.852 | 1.33 | 0.411 | 0.32 | 0.484 | 0.404 | 0.505 | 0.811 | 0.501
16 | LOU-NH91 | 0.893 | 0.679 | 0.842 | 0.913 | 0.882 | 0.716 | 0.473 | 0.717 | 0.715 | 0.768 | 0.685 | 0.8 | 0.414 | 0.402 | 0.705 | 0.673 | 0.733 | 0.715 | 0.666
